Read-outs that look alike come from different tables or passages of the source.
Experiments:
genotype 1a H77 replicon = assay: microbe, parasite or virus in culture; type: cell-based, HCV; conditions: Hepatitis C virus
Method: (§1) Evaluation of cell-based anti-HCV activity: Antiviral potency (EC50) was determined using a Renilla luciferase (RLuc)-based HCV replicon reporter assay. […] To perform the assay for genotype 2a (with M31 present in NS5A) or 2b, NS5A chimeric genotype 2a JFH-1 replicons that encodes a RLuc-Neo reporter and either genotype 2a J6 strain NS5A gene or genotype 2b MD2b-1 strain NS5A gene (both with M31 present) respectively, were either transiently transfected (t) into Huh-Lunet cells or were established as stably replicating replicon cells (s) is provided. Either cells were dispensed into 384-well plates for EC50 assays. To perform the assay for genotype 3 and 4, NS5A chimeric genotype 1b Con1 replicons that encodes a Pi-RLuc reporter and either genotype 3a S52 strain NS5A gene or genotype 4a ED43 strain NS5A gene respectively, were transiently transfected (t) into Huh-Lunet cells, which were subsequently dispensed into 384-well plates. Compounds were dissolved in DMSO at a concentration of 10 mM and diluted in DMSO either manually or using an automated pipeting instrument. Serially 3-fold diluted compounds were either manually mixed with cell culture media and added to the seeded cells or directly added to the cells using an automated instrument. […] 72 hours later, cells were lysed and Renilla luciferase activity quantified as recommended by the manufacturer (Promega-Madison, Wis.). Non-linear regression was performed to calculate EC50 values.

[1] = tested on: genotype 1b Con1 replicon; assay: microbe, parasite or virus in culture; type: cell-based, HCV
Method: as §1

[2] = tested on: genotype 2a JFH-1 replicon (L31 present in NS5A); assay: microbe, parasite or virus in culture; type: cell-based, HCV
Method: as §1

[3] = tested on: genotype 2b MD2b-1 strain NS5A gene (M31 present); assay: microbe, parasite or virus in culture; type: cell-based, HCV
Method: as §1

[4] = tested on: genotype 2a J6 strain NS5A gene (M31 present); assay: Replicon assay, NS5A chimeric 2a JFH-1 replicon with 2a J6 NS5A, transient (t) or stable (s), Huh-Lunet cells; type: cell-based, HCV
Method: as §1

[5] = tested on: genotype 3a S52 strain NS5A gene; assay: Replicon assay, NS5A chimeric 1b Con1 replicon with 3a NS5A, transiently transfected Huh-Lunet cells; type: cell-based, HCV
Method: as §1

[6] = tested on: genotype 4a ED43 strain NS5A gene; assay: Replicon assay, NS5A chimeric 1b Con1 replicon with 4a NS5A, transiently transfected Huh-Lunet cells; type: cell-based, HCV; conditions: Hepatitis C virus
Method: as §1, with “[…],” for “were transiently transfected (t) into Huh-Lunet cells,”

Q30R in genotype 1a NS5A = assay: Antiviral potency against resistance mutant, 1a Pi-Rluc replicon in Huh-7-derived cured-51 cells; type: cell-based, HCV
Method: as §1
To determine the antiviral potency (EC50) against resistance mutants, resistance mutations, including M28T, Q30R, Q30H, L31M, and Y93C in genotype 1a NS5A and Y93H in genotype 1b NS5A, were introduced individually into either 1a Pi-Rluc or 1b Pi-Rluc replicons by site directed mutagenesis. Replicon RNA of each resistant mutant was transiently transfected into Huh-7-derived cured-51 cells and antiviral potency was determined on these transfected cells as described above.

[7] = tested on: genotype 2a JFH-1 replicon (L31 present in NS5A); assay: microbe, parasite or virus in culture; type: cell-based, HCV; conditions: Hepatitis C virus, read-out: 2a JFH
[8] = IV and PO Single Dose Pharmacokinetic Studies in SD Rats; type: in vivo, male Sprague-Dawley (SD) rats; conditions: oral bioavailability, PO 2 mg/kg vs IV infusion 1 mg/kg
Method: IV and PO Single Dose Pharmacokinetic Studies in SD Rats: The pharmacokinetics of selected compounds was characterized in male Sprague-Dawley (SD) rats (250-300g). […] The intravenous (IV) dosing vehicle was 5% ethanol, 35% polyethylene glycol 400 (PEG 400) and 60% water pH 2.0. […] Serial blood samples (approximately 0.3 mL each) were collected from jugular vein or other suitable vein at specified time points. […] The blood samples were collected into Vacutainer™ tubes containing EDTA-K3 as the anti-coagulant and were centrifuged at approximately 4° C. to obtain plasma. The plasma samples were stored at −20° C. until analysis by LC/MS/MS. […] Standard curve and quality control samples were prepared in male rat plasma and processed in the same way as the test samples to generate quantitative data. […] Values below the lower limit of quantification (LLOQ) were assigned a value of zero if predose and treated as missing thereafter. Area under the curve (AUC) was calculated using the linear trapezoidal rule. The oral bioavailability (% F) was determined by comparison of the area under the curve (AUC) of the compound and/or a metabolite generated in plasma following oral administration to that generated following intravenous administration.

[9] = Hepatitis C virus, read-out: 1b (nM)
[10] = Hepatitis C virus, read-out: 2a JFH (nM)
[11] = Hepatitis C virus, read-out: 2b
[12] = Hepatitis C virus, read-out: 2b (s) (nM)
[13] = Hepatitis C virus, read-out: 2b (t) (nM)
[14] = Hepatitis C virus, read-out: 2a J6
[15] = Hepatitis C virus, read-out: 2a J6 (t) (nM)

SMILES	EC50 (genotype 1a H77 replicon; read-out: 1a) [nM]	EC50 (genotype 1a H77 replicon; read-out: 1a (nM)) [nM]	EC50 [1, 9] [nM]	EC50 [2, 10] [nM]	EC50 [3, 11] [nM]	EC50 [3, 12] [nM]	EC50 [3, 13] [nM]	EC50 [4, 14] [nM]	EC50 [4, 15] [nM]	EC50 ([6]; read-out: 4a) [nM]	EC50 ([6]; read-out: 4a (s) (nM)) [nM]	EC50 [7] [pM]	other results
COC(=O)NC(C(=O)N1CCCC1c1nc2ccc3cc4c(cc3c2[nH]1)OCc1cc(-c2cnc(C3CCCN3C(=O)C(NC(=O)O)C(C)C)[nH]2)ccc1-4)c1ccccc1 (stereo not drawn) [Example LQ, [1-(2-{5-[2-(1-{[(Methoxycarbonyl)amino](phenyl)acetyl}pyrrolidin-2-yl)-1,11-dihydroisochromeno[4′,3′:6,7]naphtho[1,2-d]imidazol-9-yl]-1H-imidazol-2-yl}pyrrolidin-1-yl)-3-methyl-1-oxobutan-2-yl]carbamic acid]	< 1	0.022	0.02	0.004	< 1	0.035	0.012	< 1	0.134	< 1	0.02	< 1000	EC50 ([4]; Hepatitis C virus, read-out: 2a J6 (s) (nM)): 0.543 nM; EC50 ([5]; Hepatitis C virus, read-out: 3a): < 1 nM; EC50 ([5]; Hepatitis C virus, read-out: 3a (nM)): 0.005 nM; EC50 ([6]; read-out: 4a (t) (nM)): 0.008 nM; EC50 (Q30R in genotype 1a NS5A; Hepatitis C virus, read-out: 1a Q30R): < 1 nM; EC50 (Q30R in genotype 1a NS5A; Hepatitis C virus, read-out: 1a Q30R (nM)): 0.135 nM
COC[C@H]1C[C@@H](c2nc3ccc4cc5c(cc4c3[nH]2)OCc2cc(-c3cnc([C@@H]4C[C@H]6C[C@H]6N4C(=O)[C@@H](NC(=O)OC)[C@@H](C)OC)[nH]3)ccc2-5)N(C(=O)[C@H](NC(=O)OC)c2ccccc2)C1 [Example MX]	< 1	0.036	0.076	0.024	< 1	0.139	0.07	< 1	0.035	< 1	0.033	< 1000	–
COC[C@H]1C[C@@H](c2nc3ccc4cc5c(cc4c3[nH]2)OCc2cc(-c3cnc([C@@H]4CC[C@H](C)N4C(=O)[C@@H](NC(=O)OC)C(C)C)[nH]3)ccc2-5)N(C(=O)[C@@H](NC(=O)OC)[C@@H](C)OC)C1 [Example OM, Methyl {(2S)-1-[(2S,4S)-2-(5-{2-[(2S,5S)-1-{(2S,3R)-3-methoxy-2-[(methoxycarbonyl)amino]butanoyl}-4-(methoxymethyl)pyrrolidin-2-yl]-1,11-dihydroisochromeno[4′,3′:6,7]naphtho[1,2-d]imidazol-9-yl}-1H-imidazol-2-yl)-5-methylpyrrolidin-1-yl]-3-methyl-1-oxobutan-2-yl}carbamate]	–	–	–	–	–	–	–	–	–	–	–	–	EC50 ([1]; read-out: 1b): 0.019 nM; EC50 ([2]; genotype 2a JFH replicon, EC50 range class, read-out: 2a JFH): < 1 nM; EC50 ([2]; genotype 2a JFH replicon, read-out: 2a JFH): 0.009 nM; EC50 ([3]; genotype 2b, EC50 range class, transiently transfected cells (t), if unavailable stably replicating cells (s), read-out: 2b): < 1 nM; EC50 ([3]; stably replicating cells (s), read-out: 2b (s)): 0.054 nM; EC50 ([3]; transiently transfected cells (t), read-out: 2b (t)): 0.053 nM; EC50 ([4]; genotype 2a J6, EC50 range class, transiently transfected cells (t), if unavailable stably replicating cells (s), read-out: 2a J6): < 1 nM; EC50 ([4]; transiently transfected cells (t), read-out: 2a J6 (t)): 0.045 nM; EC50 ([5]; genotype 3a, EC50 range class, read-out: 3a): < 1 nM; EC50 ([5]; genotype 3a, read-out: 3a): 0.035 nM; EC50 (Q30R in genotype 1a NS5A; genotype 1a Q30R resistance mutant, EC50 range class, read-out: 1a Q30R): < 1 nM; EC50 (Q30R in genotype 1a NS5A; genotype 1a Q30R resistance mutant, read-out: 1a Q30R): 0.035 nM; Rat % F [8]: 12.2%
CCC(C)[C@H](NC(=O)OC)C(=O)N1C[C@@H](C)CC1c1ncc(-c2ccc3c(c2)COc2cc4c(ccc5nc([C@@H]6C[C@H](COC)CN6C(=O)[C@@H](NC(=O)OC)C(C)OC)[nH]c54)cc2-3)[nH]1 (stereo in doubt) [Example QD, Methyl {(2S,3R)-1-[(2S,4S)-2-(5-{2-[(2S,4S)-1-[N-(methoxycarbonyl)-O-methyl-L-allothreonyl]-4-(methoxymethyl)pyrrolidin-2-yl]-1,11-dihydroisochromeno[4′,3′:6,7]naphtho[1,2-d]imidazol-9-yl}-1H-imidazol-2-yl)-4-methylpyrrolidin-1-yl]-3-methyl-1-oxopentan-2-yl}carbamate]	< 1	–	0.03	–	< 1	–	–	< 1	–	–	–	< 1000	–

— patent US9221833B2, “Antiviral compounds” (GILEAD PHARMASSET LLC, priority 2011, dated 2015)
